The results in this text go back to patent US7517998B2, “Non nucleoside reverse transcriptase inhibitors” (priority 2004, dated 2009).

The test addresses T1, K103NNY181C mutant reverse transcriptase (Human immunodeficiency virus type 1 group M subtype B, UniProt P04585, K690N/Y768C).
T1 construct: mutations that occur in the reverse transcriptase segment of the pol gene
The test is described as follows: Reverse transcriptase enzymatic assay (PicoGreen), K103N/Y181C mutant RT. Format: biochemical, HIV-1. The note with it: enzymatic assay of Example 24. In short, it runs like this: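 HIV-1 RT (2.5 nM final) pre-incubated 15 min at room temperature with inhibitor, then reacted 50 min at 37 °C with poly rC 45 nM, dG15 4.5 nM, dGTP 3.6 μM in Tris/HCl pH 7.8, 1% DMSO. Final inhibitor 10 μM to 0.508 nM; EDTA-quenched, PicoGreen fluorescence read at 485/520 nm.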

[1] abbreviates: IC50 mut, mutant reverse transcriptase.
The mark [2] stands for this setting: IC50 mut (nM), mutant (K103N/Y181C) reverse transcriptase.
[3] abbreviates: IC50 mut, K103N/Y181C mutant reverse transcriptase.

SMILES strings stand for the structures.

The molecule `Cc1ccc(-n2nnnc2SCC(=O)Nc2ccc(-c3ccc(CC(=O)NS(C)(=O)=O)cc3)cc2Cl)c(Cl)c1` [Compound 2017] came in with an IC50 under setting [1] of 38 nM.
`Cc1ccc(-n2nnnc2SCC(=O)Nc2ccc(-c3cccc(C(=O)O)c3)cc2Cl)c(Cl)c1` [Compound 3003]: under setting [1], the IC50 worked out at 241 nM.
Under setting [2], `CC(C)(C)c1ccc(-n2nnnc2SCC(=O)Nc2ccc(NC(=O)Cc3c(Cl)cccc3Cl)cc2Cl)c(Cl)c1` [Compound 7036] displayed an IC50 of 712 nM.
Under setting [3], `CC(C)(C#Cc1ccc(NC(=O)CSc2nnnn2-c2ccc(C3CC3)cc2Cl)c(Cl)c1F)C(=O)O` [Compound 4100] showed an IC50 of 18 nM.
For `CC(C)c1ccc(-n2nnnc2SCC(=O)Nc2ccc(-c3ccc(OCCN4CCCC4)cc3)cc2Cl)c(Cl)c1` [Compound 2056], the IC50 under setting [1] was determined as 29 nM.
As to `CC(C)(C)c1ccc(-n2nnnc2SCC(=O)Nc2ccc(NC(=O)CC3CCCC3)cc2Cl)c(Cl)c1` [Compound 7023], under setting [2], the midpoint of inhibition, the IC50, lay at 255 nM.
Take `CC(C)(C)c1ccc(-n2nnnc2SCC(=O)Nc2ccc(S(=O)(=O)NCCO)cc2Cl)c(Cl)c1` [Compound 3027]: half-maximal inhibition under setting [1] (IC50) was put at 81 nM.
For the molecule `CN(C)CC(=O)NC(C)(C)C#Cc1ccc(NC(=O)CSc2nnnn2-c2ccc(C3CC3)cc2Cl)c(Cl)c1` [Compound 4087], the IC50 under setting [3] amounted to 21.5 nM.
`Cc1ccc(-n2nnnc2SCC(=O)Nc2ccc(-c3ccc(CCO)cc3)cc2Cl)c(Cl)c1` [Compound 2009] showed an IC50 under setting [1] of 28 nM.
Molecule `Cc1nnc(SCC(=O)Nc2ccc(-c3ccc(OCCN4CCCCC4)cc3)cc2Cl)n1-c1ccc(C2CC2)cc1Cl` [Compound 1013] came in with an IC50 under setting [1] of 75 nM.
Under setting [3], `CC(C)(C#Cc1ccc(NC(=O)CSc2nnnn2-c2ccc(C3CC3)cc2Cl)c(Cl)c1)OCCN1CCC1` [Compound 4119] came in with an IC50 of 121 nM.
Under setting [1], `O=C(CSc1nnnn1-c1ccc(C2CC2)cc1Cl)Nc1ccc(-c2ccc(OCCN3CCCC3)cc2)c(F)c1Cl` [Compound 2057] registered an IC50 of 8.8 nM.
Turning to `CC(C)(C#Cc1ccc(NC(=O)CSc2nnnn2-c2ccc(C3CC3)cc2Cl)c(Cl)c1)NC(=O)c1ccc[n+]([O-])c1` [Compound 4191], the IC50 under setting [3] was 4.75 nM.
For `O=C(CSc1nnnn1-c1ccc(C2CC2)cc1Cl)Nc1ccc(C(=O)NCc2ccc[n+]([O-])c2)cc1Cl` [Compound 6039], under setting [1], the IC50 stood at 104 nM.
Turning to `CC(C)(C#Cc1ccc(NC(=O)CSc2nnnn2-c2ccc(C3CC3)cc2Cl)c(Cl)c1)OCCOc1ccncc1` [Compound 4167], under setting [3], the half-inhibitory concentration (IC50) was found to be 39.5 nM.
As for `CC(C(=O)O)C(=O)NC(C)(C)C#Cc1ccc(NC(=O)CSc2nnnn2-c2ccc(C3CC3)cc2Cl)c(Cl)c1` (stereo not drawn) [Compound 4234], the IC50 under setting [3] came to 15.5 nM.
`COC(=O)C=C(C)c1ccc(NC(=O)CSc2nnnn2-c2ccc(C3CC3)cc2Cl)c(Cl)c1` [Compound 3044]: the IC50 under setting [1] is 58.5 nM.
As for `CC(C)(C#Cc1ccc(NC(=O)CSc2nnnn2-c2cccc(C3CC3)c2Cl)c(Cl)c1)C(=O)O` [Compound 4179], under setting [3], it took 467 nM to reach half-maximal inhibition (IC50).
The molecule `CC(C)(C#Cc1ccc(NC(=O)CSc2nnnn2-c2ccc(C3CC3)cc2Cl)c(Cl)c1)NC(=O)CN1CCC(O)CC1` [Compound 4125] yielded an IC50 under setting [3] of 26 nM.
As to `CC(C)(C)c1ccc(-n2nnnc2SCC(=O)Nc2ccc(-c3ccc(OCCn4ccnc4)cc3)cc2Cl)c(Cl)c1` [Compound 2036], under setting [1], half-maximal inhibition (IC50) was put at 67 nM.
`CC(C)(C#Cc1ccc(NC(=O)CSc2nnnn2-c2ccc(C3CC3)cc2Cl)c(Cl)c1)NCc1ccccc1O` [Compound 4130] yielded an IC50 under setting [3] of 43 nM.
On the same count and under the same terms, the figure for `CC(C)(C#Cc1ccc(NC(=O)CSc2nnnn2-c2cc(Cl)c(C3CC3)cc2Cl)c(Cl)c1)C(=O)O` [Compound 4206] is 152 nM.
In turn, `CC(C)(C#Cc1ccc(NC(=O)CSc2nnnn2-c2cc(C(F)(F)F)cc(C3CC3)c2Cl)c(Cl)c1F)NC(=O)CN1CCNCC1` [Compound 4236] yielded an IC50 under setting [3] of 250 nM.
Molecule `CC(C)(C)c1ccc(-n2nnnc2SCC(=O)Nc2ccc(NC(=O)NCc3ccccc3)cc2Cl)c(Cl)c1` [Compound 7008] showed an IC50 under setting [2] of 428 nM.
Regarding `Cc1cc(OCC(=O)O)ccc1-c1ccc(NC(=O)CSc2nnnn2-c2ccc(C(C)(C)C)cc2Cl)c(Cl)c1` [Compound 3011], half-maximal inhibition under setting [1] (IC50) required 340 nM.
The molecule `CC(C)(C#Cc1ccc(NC(=O)CSc2nnnn2-c2cccc(Cl)c2Cl)c(Cl)c1)C(=O)O` [Compound 4161] displayed an IC50 under setting [3] of 224 nM.
Molecule `CC(C)(C)c1ccc(-n2nnnc2SCC(=O)Nc2ccc(-c3ccc(OCC(=O)O)c(Cl)c3)cc2Cl)c(Cl)c1` [Compound 3013] returned an IC50 under setting [1] of 24 nM.
With `CC(C)(C#Cc1ccc(NC(=O)CSc2nnnn2-c2ccc(C3CC3)cc2Cl)c(Cl)c1F)NC(=O)c1cc[n+]([O-])cc1` [Compound 4157], under setting [3], the IC50 amounted to 5.95 nM.
Molecule `CC(C)(C#Cc1ccc(NC(=O)CSc2nnnn2-c2ccc(C3CC3)cc2Cl)c(Cl)c1)NC(=O)c1ccncc1` [Compound 4085] displayed an IC50 under setting [3] of 12 nM.
Regarding `O=C(CSc1nnnn1-c1ccc(C2CC2)cc1Cl)Nc1ccc(C#CC2(CNCCN3CCCC3)CC2)cc1Cl` [Compound 4095], 98.5 nM corresponded to half-maximal inhibition under setting [3] (IC50).
On to `O=C(CSc1nnnn1-c1ccc(C2CC2)cc1Cl)Nc1ccc(C#CCCN2CCNCC2)cc1Cl` [Compound 4135], for which inhibition under setting [3] was half-maximal at 29 nM (IC50).
As for `Cc1ccc(-n2nnnc2SCC(=O)Nc2ccc(-c3ccc(CC(=O)O)cc3)cc2[N+](=O)[O-])c(Cl)c1` [Compound 2011], the concentration for half-maximal inhibition (IC50) under setting [1] came out at 49 nM.
Under setting [1], `CC(C)(C)c1ccc(-n2nnnc2SCC(=O)Nc2ccc(OCCN3CCCCC3)cc2Cl)c(Cl)c1` [Compound 3033] registered an IC50 of 201 nM.
`CC(C)(C)c1ccc(-n2nnnc2SCC(=O)Nc2ccc(C#CCCCO)cc2Cl)c(Cl)c1` [Compound 4004]: half-maximal inhibition under setting [3] (IC50) required 16 nM.
Under setting [3], `CC(C)(C#Cc1ccc(NC(=O)CSc2nnnn2-c2ccc(C(C)(C)C)cc2Cl)c(Cl)c1)OCC(=O)N1CCCC1` [Compound 4038] had an IC50 of 75 nM.
Still for that read-out and setting: the figure for `CC(C)(C#Cc1ccc(NC(=O)CSc2nnnn2-c2ccc(C(C)(C)C)cc2Cl)c(Cl)c1)OCC(=O)NCCC(=O)O` [Compound 4055] is 15 nM.
Same read-out and setting: the figure for `CC(C)(C#Cc1ccc(NC(=O)CSc2nnnn2-c2cc(C(C)(C)C)ccc2Cl)c(Cl)c1)C(=O)O` [Compound 4200] is 35.5 nM.
Consider `CC(C)(C)c1ccc(-n2nnnc2SCC(=O)Nc2ccc(C(=O)Nc3ccc(O)cc3)cc2Cl)c(Cl)c1` [Compound 6013], for which, under setting [1], the IC50 worked out at 34 nM.
Molecule `O=C(CSc1nnnn1-c1ccc(C2CC2)cc1Cl)Nc1ccc(C#CC2(CN3CCC(O)CC3)CC2)cc1Cl` [Compound 4096] gave an IC50 under setting [3] of 37 nM.
In turn, `CC(C)Oc1ccc(Cl)c(-n2nnnc2SCC(=O)Nc2ccc(C#CC(C)(C)C(=O)O)cc2Cl)c1` [Compound 4187] gave an IC50 under setting [3] of 61.5 nM.
In the case of `CC(C)(C#Cc1ccc(NC(=O)CSc2nnnn2-c2cc(C(F)(F)F)ccc2Cl)c(Cl)c1F)NC(=O)c1cc[n+]([O-])cc1` [Compound 4164], the IC50 under setting [3] is 18.5 nM.
In turn, `CC(C)(C)c1ccc(-n2nnnc2SCC(=O)Nc2ccc(OCC(=O)NCc3ccc(O)c(O)c3)cc2Cl)c(Cl)c1` [Compound 5019] showed an IC50 under setting [1] of 78 nM.
For `CC(C)(C)c1ccc(-n2nnnc2SCC(=O)Nc2ccc(C#CC3CC3)cc2Cl)c(Cl)c1` [Compound 4032], under setting [3], the IC50 was found to be 39 nM.
`CC(C)(C#Cc1ccc(NC(=O)CSc2nnnn2-c2ccc(C3CC3)cc2Cl)c(Cl)c1)C(=O)NS(=O)(=O)C1CC1` [Compound 4184] had an IC50 under setting [3] of 30.5 nM.
For the molecule `Cc1cc(C)c(-n2nnnc2SCC(=O)Nc2ccc(-c3ccc(CC(=O)O)cc3)cc2Cl)c(Cl)c1` [Compound 2021], the IC50 under setting [1] was found to be 20 nM.

Broadly, the IC50 is the midpoint of a concentration-inhibition curve. Lower therefore signals inhibition by little substance.
